One block for each compound: values may come before it. Activity calls are given as the source filed them.
Assays:
[1] = C. albicans growth with fluconazole, confirmation, fluorescence, retest (AID 2467); assay type: functional, cell-based
[2] = NIH-3T3 fibroblast cytotoxicity, dose response, cytotoxicity control, cell-based, fluorescence, Alamar Blue, secondary assay (AID 2327); assay type: functional;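 note: NIH-3T3 mouse fibroblasts cultured with fluconazole at 8 µg/mL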
[3] = molecular target: T1, Serine/threonine-protein phosphatase (Candida dubliniensis (strain CD36 / CBS 7987 / NCPF 3949 / NRRLY-17841) (Yeast), UniProt B9W6M3); assay: calcineurin pathway inhibitors in yeast reporter, dose response, S. cerevisiae, CDRE-lacZ, luminescence, secondary (AID 2388); assay type: functional, cell-based;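 note: yeast reporter cells carrying a calcineurin-responsive lacZ construct stimulated with calcium chloride; luminescent beta-galactosidase reporter signal in whole cells rather than isolated phosphatase activity; potency for inhibition where a drop in reporter signal means calcineurin blockade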
T1 sequence (B9W6M3 whole entry): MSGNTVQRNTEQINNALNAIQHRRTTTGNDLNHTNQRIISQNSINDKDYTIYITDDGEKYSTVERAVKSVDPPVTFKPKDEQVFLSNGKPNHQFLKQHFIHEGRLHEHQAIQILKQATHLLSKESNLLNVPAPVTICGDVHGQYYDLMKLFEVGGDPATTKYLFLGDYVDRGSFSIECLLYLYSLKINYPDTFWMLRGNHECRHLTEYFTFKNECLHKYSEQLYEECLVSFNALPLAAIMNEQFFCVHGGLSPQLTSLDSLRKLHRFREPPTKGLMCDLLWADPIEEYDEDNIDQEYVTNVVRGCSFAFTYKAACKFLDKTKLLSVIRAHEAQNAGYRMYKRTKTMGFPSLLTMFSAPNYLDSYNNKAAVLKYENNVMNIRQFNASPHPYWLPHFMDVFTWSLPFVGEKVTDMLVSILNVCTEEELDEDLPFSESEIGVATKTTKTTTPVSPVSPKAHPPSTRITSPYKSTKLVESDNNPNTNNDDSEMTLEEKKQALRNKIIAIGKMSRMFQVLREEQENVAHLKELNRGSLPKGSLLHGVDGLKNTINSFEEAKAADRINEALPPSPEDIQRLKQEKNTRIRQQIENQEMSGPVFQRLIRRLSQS

Aminopeptidase N = Aminopeptidase N (Plasmodium falciparum FcB1/Columbia, UniProt O96935); assay: P. falciparum M1AAP inhibitors, biochemical, fluorogenic H-Leu-NHMec substrate, 1536-well (AID 1445); set-up: species or system Plasmodium falciparum 3D7, 3D7
[4] = molecular target: ATP-dependent molecular chaperone HSP82 (Candida albicans (strain WO-1) (Yeast), UniProt C4YTQ8); assay: loss of DOC-induced GRE-beta-galactosidase reporter signal, dose response, Hsp90 inhibitor project, S. cerevisiae, luminescence (AID 2400); assay type: functional, cell-based;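 note: beta-galactosidase luminescence from glucocorticoid response element reporter as proxy for Hsp90 function; inhibitor potency where signal loss means Hsp90 inhibition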
Procathepsin L = Procathepsin L (Homo sapiens, UniProt P07711)
Aspartyl aminopeptidase = Aspartyl aminopeptidase (Plasmodium falciparum 3D7, UniProt Q8I2J3)
Cytochrome P450 2C9 = Cytochrome P450 2C9 (Homo sapiens, UniProt P11712); settings: Potency
Cytochrome P450 3A4 = Cytochrome P450 3A4 (Homo sapiens, UniProt P08684); settings: Potency;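 note: confirmatory qHTS run detecting inhibitors and substrates of CYP3A4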
Cytochrome P450 2D6 = Cytochrome P450 2D6 (Homo sapiens, UniProt P10635); assay: qHTS Assay for Inhibitors and Substrates of Cytochrome P450 2D6. [Related pubchem assays: 410 ]; assay type: ADME; settings: read-out: Potency
[5] = molecular target: Lysosomal acid glucosylceramidase (Homo sapiens, UniProt P04062); assay: Dose response cell-based high throughput screening assay to identify enhancers of beta-glucosidase activity. [Related pubchem assays: 784 ]; assay type: functional
[6] = inhibitors of intracellular T. cruzi replication, confirmation, NIH3T3 host cells, beta-gal luminescence (AID 2044); assay type: functional, cell-based;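 note: intracellular parasites grown in NIH/3T3 mouse fibroblasts as host cells; luminescent beta-galactosidase reporter signal from transgenic T. cruzi replicating inside host cells; inhibitors lower the luminescence signal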
[7] = molecular target: Sphingosine 1-phosphate receptor 1 (Homo sapiens, UniProt P21453); assay type: functional;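 note: Tango beta-arrestin reporter U2OS cells stimulated with S1P near its EC80; inhibitor potency meaning antagonism of receptor activation by the natural agonist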
[8] = growth suppression of beta-catenin-knockout colon cells, dose response, cell-based, HCT116, human colon tumor (AID 1045); assay type: functional;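 note: HCT116 colon tumor cells with beta catenin knocked out; cells exposed to compound for 60 hours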
[9] = molecular target: G-protein coupled receptor 35 (Homo sapiens, UniProt Q9HC97); assay: GPR35 antagonists blocking zaprinast-driven arrestin recruitment, primary screen, imaging, U2OS, beta-arrestin-GFP, zaprinast agonist (AID 2058); assay type: functional;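 note: antagonist potency meaning inhibition of agonist-induced arrestin redistribution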
[10] = cytotoxicity toward NIH3T3 fibroblasts, dose response, counter-screen, cell-based, ATP luminescence, mouse fibroblasts (AID 2010); assay type: functional;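 note: cells exposed to compound for about 90 hours before reading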
[11] = growth suppression of PTEN-null colon cells, dose response, cell-based, HCT116 PTEN knockout (AID 1047); assay type: functional;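 note: HCT116 colon tumor cells with PTEN knocked out; cells exposed to compound for 60 hours before readout; potency for loss of cell viability measured by luminescence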
[12] = molecular target: T2, Sphingosine 1-phosphate receptor 4 (Homo sapiens, UniProt O95977); assay: Fluorescence dose response cell-based high throughput screening assay for antagonists of the Sphingosine 1-Phosphate Receptor 4 (S1P4). [Related pubchem assays: 1524 (Confirmation in triplicates.), 1510 (Primary screen.)]; assay type: functional
T2 sequence (O95977 whole entry): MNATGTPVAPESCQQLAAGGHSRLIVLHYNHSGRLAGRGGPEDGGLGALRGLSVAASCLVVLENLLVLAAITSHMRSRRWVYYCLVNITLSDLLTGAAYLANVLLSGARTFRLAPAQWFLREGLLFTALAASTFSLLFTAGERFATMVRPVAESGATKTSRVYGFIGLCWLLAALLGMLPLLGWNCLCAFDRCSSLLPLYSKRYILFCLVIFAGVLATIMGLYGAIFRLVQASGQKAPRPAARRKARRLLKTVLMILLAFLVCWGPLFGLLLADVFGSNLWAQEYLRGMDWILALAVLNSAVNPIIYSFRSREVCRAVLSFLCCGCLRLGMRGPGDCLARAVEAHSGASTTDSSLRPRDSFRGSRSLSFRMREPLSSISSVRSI

[13] = molecular target: T3, Alkaline phosphatase, tissue-nonspecific isozyme (Homo sapiens, UniProt P05186)
T3 sequence (P05186 whole entry): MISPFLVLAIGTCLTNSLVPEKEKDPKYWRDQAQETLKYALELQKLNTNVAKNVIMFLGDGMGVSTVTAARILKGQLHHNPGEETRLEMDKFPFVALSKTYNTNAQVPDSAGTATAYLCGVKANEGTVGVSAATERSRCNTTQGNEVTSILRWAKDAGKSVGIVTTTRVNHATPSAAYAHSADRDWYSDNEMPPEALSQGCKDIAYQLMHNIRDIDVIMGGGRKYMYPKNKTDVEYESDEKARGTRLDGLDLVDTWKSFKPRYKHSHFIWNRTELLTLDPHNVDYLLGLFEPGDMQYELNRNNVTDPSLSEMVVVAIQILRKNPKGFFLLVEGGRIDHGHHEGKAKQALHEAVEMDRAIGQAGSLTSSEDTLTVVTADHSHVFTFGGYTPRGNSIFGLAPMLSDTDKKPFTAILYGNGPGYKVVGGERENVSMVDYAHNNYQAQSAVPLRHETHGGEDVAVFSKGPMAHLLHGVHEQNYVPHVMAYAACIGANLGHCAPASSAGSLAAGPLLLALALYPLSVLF

Chain of Lysosomal acid glucosylceramidase (P04062 whole entry): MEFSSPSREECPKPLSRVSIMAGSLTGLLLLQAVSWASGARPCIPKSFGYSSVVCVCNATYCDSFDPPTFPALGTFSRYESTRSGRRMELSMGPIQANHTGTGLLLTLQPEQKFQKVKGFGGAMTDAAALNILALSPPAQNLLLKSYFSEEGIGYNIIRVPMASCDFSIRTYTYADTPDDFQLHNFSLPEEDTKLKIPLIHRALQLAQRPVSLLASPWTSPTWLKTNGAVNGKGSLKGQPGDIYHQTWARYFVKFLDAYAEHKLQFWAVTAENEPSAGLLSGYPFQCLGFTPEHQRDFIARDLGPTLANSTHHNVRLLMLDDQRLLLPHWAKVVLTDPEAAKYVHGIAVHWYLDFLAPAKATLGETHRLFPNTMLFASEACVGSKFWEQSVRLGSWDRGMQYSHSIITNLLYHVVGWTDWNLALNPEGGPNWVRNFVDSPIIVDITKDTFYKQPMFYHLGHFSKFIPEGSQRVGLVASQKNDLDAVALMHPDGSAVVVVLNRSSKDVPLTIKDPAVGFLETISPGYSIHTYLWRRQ
Chain of Cytochrome P450 2C9 (P11712 whole entry): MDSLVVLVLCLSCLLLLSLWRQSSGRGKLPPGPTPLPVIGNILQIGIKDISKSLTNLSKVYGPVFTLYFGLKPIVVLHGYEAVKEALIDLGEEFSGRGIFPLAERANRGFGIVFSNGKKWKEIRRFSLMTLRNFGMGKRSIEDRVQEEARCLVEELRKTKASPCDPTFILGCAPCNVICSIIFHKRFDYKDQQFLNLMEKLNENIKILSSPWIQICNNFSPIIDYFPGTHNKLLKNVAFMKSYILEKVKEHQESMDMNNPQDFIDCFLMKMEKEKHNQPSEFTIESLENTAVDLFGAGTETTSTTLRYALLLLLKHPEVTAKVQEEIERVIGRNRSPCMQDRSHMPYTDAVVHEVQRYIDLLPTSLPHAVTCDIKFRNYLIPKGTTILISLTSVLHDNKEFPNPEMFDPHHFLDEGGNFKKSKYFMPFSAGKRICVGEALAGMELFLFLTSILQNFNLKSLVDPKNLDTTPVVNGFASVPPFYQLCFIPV
Chain of Cytochrome P450 3A4 (P08684 whole entry): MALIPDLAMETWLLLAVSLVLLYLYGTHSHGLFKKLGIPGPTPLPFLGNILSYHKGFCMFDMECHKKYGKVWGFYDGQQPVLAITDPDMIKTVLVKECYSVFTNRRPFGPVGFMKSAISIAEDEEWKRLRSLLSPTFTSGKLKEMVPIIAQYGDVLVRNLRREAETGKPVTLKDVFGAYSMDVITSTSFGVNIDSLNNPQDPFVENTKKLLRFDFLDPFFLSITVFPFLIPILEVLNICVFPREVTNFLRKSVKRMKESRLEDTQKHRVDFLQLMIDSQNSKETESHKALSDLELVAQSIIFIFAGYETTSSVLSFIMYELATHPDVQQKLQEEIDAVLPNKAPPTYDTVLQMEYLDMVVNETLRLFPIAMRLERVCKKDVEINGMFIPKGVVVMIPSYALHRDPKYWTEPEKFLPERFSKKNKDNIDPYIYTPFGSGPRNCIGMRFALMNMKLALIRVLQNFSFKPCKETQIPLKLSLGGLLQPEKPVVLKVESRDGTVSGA
Chain of Aspartyl aminopeptidase (Q8I2J3 whole entry): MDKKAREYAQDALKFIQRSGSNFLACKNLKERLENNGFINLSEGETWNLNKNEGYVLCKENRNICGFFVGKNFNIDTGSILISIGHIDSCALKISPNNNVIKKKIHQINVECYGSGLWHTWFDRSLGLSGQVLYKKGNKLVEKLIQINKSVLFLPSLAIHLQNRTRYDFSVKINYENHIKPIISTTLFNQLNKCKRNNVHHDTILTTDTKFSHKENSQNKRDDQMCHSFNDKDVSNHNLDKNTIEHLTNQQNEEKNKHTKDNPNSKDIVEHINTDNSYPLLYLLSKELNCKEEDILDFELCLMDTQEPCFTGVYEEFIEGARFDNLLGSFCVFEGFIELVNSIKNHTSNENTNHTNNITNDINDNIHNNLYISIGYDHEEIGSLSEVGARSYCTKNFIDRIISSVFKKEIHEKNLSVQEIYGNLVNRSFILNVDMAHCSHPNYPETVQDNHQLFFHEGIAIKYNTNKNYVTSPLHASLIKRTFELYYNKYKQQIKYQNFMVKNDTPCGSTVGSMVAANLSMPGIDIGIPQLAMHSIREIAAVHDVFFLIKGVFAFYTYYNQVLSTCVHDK
Chain of Procathepsin L (P07711 whole entry): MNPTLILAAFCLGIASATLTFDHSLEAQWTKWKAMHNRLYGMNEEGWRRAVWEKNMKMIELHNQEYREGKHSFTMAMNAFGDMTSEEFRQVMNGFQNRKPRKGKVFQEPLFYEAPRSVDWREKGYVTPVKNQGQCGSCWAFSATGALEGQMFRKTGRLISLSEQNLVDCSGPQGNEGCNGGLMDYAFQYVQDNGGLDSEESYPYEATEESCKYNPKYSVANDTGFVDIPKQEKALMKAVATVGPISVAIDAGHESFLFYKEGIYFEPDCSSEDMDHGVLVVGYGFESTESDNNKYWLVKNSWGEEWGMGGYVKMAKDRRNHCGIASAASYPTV
Chain of Sphingosine 1-phosphate receptor 1 (P21453 whole entry): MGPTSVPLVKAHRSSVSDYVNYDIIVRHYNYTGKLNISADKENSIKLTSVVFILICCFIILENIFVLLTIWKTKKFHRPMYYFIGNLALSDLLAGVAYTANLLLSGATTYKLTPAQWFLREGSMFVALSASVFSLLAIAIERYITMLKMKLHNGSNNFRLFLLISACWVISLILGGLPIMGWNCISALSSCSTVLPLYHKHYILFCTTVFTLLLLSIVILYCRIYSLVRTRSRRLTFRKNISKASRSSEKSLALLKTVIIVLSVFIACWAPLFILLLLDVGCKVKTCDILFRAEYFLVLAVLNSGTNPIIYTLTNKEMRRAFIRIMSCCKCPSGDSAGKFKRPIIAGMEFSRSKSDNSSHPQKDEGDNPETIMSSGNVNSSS
Chain of Cytochrome P450 2D6 (P10635 whole entry): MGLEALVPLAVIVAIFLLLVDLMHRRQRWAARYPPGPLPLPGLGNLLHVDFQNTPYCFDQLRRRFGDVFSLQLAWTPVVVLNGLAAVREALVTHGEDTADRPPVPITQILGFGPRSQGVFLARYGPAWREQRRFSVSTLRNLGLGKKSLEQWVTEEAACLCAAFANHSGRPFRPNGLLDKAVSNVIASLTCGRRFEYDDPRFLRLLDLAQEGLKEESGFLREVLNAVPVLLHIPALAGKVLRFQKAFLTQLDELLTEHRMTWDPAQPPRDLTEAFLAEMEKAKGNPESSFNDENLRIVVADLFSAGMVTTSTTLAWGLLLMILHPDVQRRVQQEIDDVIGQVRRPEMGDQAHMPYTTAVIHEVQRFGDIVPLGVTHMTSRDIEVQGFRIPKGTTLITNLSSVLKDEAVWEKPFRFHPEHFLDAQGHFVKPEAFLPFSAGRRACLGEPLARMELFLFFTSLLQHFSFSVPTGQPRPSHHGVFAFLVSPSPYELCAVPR
Chain of G-protein coupled receptor 35 (Q9HC97 whole entry): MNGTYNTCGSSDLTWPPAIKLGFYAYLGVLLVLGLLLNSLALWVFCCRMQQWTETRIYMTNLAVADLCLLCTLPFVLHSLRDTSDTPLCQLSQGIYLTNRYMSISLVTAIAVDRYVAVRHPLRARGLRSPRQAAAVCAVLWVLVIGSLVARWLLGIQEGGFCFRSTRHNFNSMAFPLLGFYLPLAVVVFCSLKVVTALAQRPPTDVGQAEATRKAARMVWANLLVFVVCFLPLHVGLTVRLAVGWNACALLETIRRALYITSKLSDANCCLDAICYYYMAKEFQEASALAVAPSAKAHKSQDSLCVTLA
Chain of ATP-dependent molecular chaperone HSP82 (C4YTQ8 whole entry): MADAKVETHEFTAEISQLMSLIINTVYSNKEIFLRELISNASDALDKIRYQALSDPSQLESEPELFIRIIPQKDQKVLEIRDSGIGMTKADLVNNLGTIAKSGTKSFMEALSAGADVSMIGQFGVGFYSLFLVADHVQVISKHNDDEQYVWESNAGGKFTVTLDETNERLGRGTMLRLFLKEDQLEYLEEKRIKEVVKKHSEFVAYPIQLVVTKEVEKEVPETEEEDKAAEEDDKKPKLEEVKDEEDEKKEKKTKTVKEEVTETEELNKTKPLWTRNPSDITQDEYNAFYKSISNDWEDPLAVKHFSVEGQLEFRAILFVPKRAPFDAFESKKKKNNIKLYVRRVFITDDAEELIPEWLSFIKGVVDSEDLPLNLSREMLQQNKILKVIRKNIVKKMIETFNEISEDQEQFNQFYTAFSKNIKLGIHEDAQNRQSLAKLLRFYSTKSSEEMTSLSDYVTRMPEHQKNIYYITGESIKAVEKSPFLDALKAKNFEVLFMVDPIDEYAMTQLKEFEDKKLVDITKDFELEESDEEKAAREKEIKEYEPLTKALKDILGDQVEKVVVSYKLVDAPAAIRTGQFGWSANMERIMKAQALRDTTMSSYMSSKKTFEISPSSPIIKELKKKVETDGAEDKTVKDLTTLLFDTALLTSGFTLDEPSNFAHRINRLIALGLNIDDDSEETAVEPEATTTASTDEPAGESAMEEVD

Compound: CCn1c(O)c(N=NC(=O)c2cccs2)c2ccccc21
- EC50 [1]: 1.09 µM (active)
- EC50 [2]: 43.6 µM (active)
- EC50 [3]: > 180 µM (inactive)
- IC50 (Aminopeptidase N): 70.2 µM (active)
- EC50 [4]: 31.2 µM (active)

- IC50 (Procathepsin L): > 59.6 µM (not active)
- IC50 (Aspartyl aminopeptidase): 0.833 µM (active)
Compound: O=c1[nH]c(CSc2nnc[nH]2)nc2ccccc12

- AC50 (Cytochrome P450 2C9): 3.16 µM (inconclusive)
- AC50 (Cytochrome P450 3A4): 3.98 µM (inconclusive)
- AC50 (Cytochrome P450 2D6): 3.16 µM (inconclusive)
Compound: CC1CCC2C(=O)OC(CN3C(=O)c4ccccc4C3=O)CN2C1c1ccc(Br)cc1 (centres undefined)

- IC50 (Procathepsin L): > 59.6 µM (not active)
- IC50 (Aspartyl aminopeptidase): 0.351 µM (active)
Compound: COC(=O)CN(n1cnnc1)S(=O)(=O)c1ccc(C)cc1

- EC50 [5]: > 50 µM (not active)
Compound: CCCCOc1nc2ccccc2nc1C(C#N)S(=O)(=O)c1ccccc1 (centres undefined)

- AC50 (Cytochrome P450 2C9): 2.51 µM (inconclusive)
- AC50 (Cytochrome P450 3A4): 3.98 µM (inconclusive)
Compound: CCOC(=O)OCC1OC(C#Cc2ccc(Br)cc2)C=CC1OC(=O)OCC (centres undefined)

Compound: COc1cc(/C=C(/C)[N+](=O)[O-])ccc1OCc1ccccc1Cl
- EC50 [6]: 2.07 µM (active)
- IC50 [7]: 7.64 µM (active)
- EC50 [8]: 8.05 µM (active)
- IC50 [9]: 2.45 µM (active)
- EC50 [10]: 9.08 µM (active)
- EC50 [11]: 8.96 µM (active)
- IC50 [12]: 0.727 µM (active)

- EC50 [13]: > 100 µM (not active)
Compound: CCCCN1CC(=O)C(c2nc3ccccc3[nH]2)=C1N

- EC50 [5]: > 50 µM (not active)
Compound: COc1ccc(S(=O)(=O)C(C#N)c2nc3ccccc3nc2N2CCCCC2)cc1 (centres undefined)

— ChEMBL document CHEMBL1201862, “PubChem BioAssay data set” (2004)
